The source of these data is paper PMC6385671, “An integrated-molecular-beacon based multiple exponential strand displacement amplification strategy for ultrasensitive detection of DNA methyltransferase activity” (Chemical Science, 2018).

For the test, the target named is Dam MTase (Escherichia coli, UniProt P0AEE8). As to the kind of experiment: coupled fluorescence assay (molecular beacon methylation, DpnI cleavage, strand displacement amplification) with commercial Dam MTase. Type of test: biochemical.
Chain of Dam MTase (P0AEE8 whole entry): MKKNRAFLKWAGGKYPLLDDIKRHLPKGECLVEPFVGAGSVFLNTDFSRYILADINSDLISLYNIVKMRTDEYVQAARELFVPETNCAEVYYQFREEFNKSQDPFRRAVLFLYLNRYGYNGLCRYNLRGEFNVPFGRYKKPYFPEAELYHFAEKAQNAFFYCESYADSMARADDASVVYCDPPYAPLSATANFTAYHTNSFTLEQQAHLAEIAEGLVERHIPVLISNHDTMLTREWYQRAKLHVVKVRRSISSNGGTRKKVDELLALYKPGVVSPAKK

As for `O=c1[nH]cc(F)c(=O)[nH]1` [5-fluorouracil], the IC50 (commonly the concentration that gives 50% inhibition) is 710 nM.
